Measured values as given in patent EP3572468B1, “CYANINE DYES AND THEIR USAGE FOR IN VIVO STAINING OF MICROORGANISMS” (PHILIPPS-UNIVERSITÄT MARBURG, priority 2018, dated 2019).
Several values for one entry are separate records, joined by “and”; a condition that tells them apart may be missing. Equal entries are not always repeated.

How the values were obtained:
[1] = test system: dsDNACT; assay: Thermal melting analysis of dsDNACT; type: binding, calf
Procedure: Thermal melting analysis was performed on a Jasco J-810 spectropolarimeter equipped with a Jasco CDF-426S peliter controller and a Thermo Haake WKL 26 water recirculator. It was measured at a concentration of 45 µM of dsDNACT with and without 1.8 µM of 6-TramTO-3 in 10 mM Tris pH 7.5. The measurement was performed at 260 nm, with a response of 2 s, a band width of 10 nm, from 40-95°C, a slope of 2°C/min. Three independent measurements were recorded and the intensity normalized.

[2] = Fluorescence quantum yield, dye alone; type: physicochemical; details: dye alone, without dsDNACT; 10 mM Tris pH 7.6 and 50 mM KCI, 25°C; reference dye Alexa Fluor 647
Procedure: Fluorescence intensity values for the quantum yields were determined on an ISS PC1 spectrofluorometer with an ISS 11650 lamp connected to an ISS Simpson model 109 and an ISS 80011 photomulitplier connected to a MGW Lauda K2R D and an Amherst Scientific Corp. 7600F for cooling. A VWR Refrigerated Circ 1160S was connected for the cooling of the cuvette chamber. It was measured in a 1400 µL fluorescence cuvette of HellmaAnalytics (104F-QS) at 25°C using the following settings: increment: 2.0 nm; integration time: 1.0 s; excitation slit width: 0.25 mm; emission slit width: 0.5 mm; excitation wavelength 590 nm. The emission spectra were recorded from 610 to 750 nm. From all spectra the corresponding background signal was substracted. Absorbance values were measured on a Jasco V-650 UV-Vis Spectrophotometer equipped with a Jasco PAC-743 temperature controlled cell holder and a Julabo F250 cooling system. UV-Vis titration measurements were performed in a 1400 µL quarz cuvette with a pathlength of 1 cm at 25°C using the following settings: increment: 1.0 nm; bandwidth: 1.0 nm; scanning speed: 1000 nm/min; scanning mode: continuous. From all values, the corresponding background signal was subtracted. The values for the reference compounds were measured in duplicates, the ones for 6-TramTO-3 with and without dsDNACT in triplicates. The quantum yields of 6-TramTO-3 with (30 eq.) and without dsDNACT were determined in 10 mM Tris pH 7.6 and 50 mM KCI. All measurement were following the procedure of Horiba and using the equation E1: ΦX = ΦST ((GradX)/(GradST)) ((((ηX))^2)/(((ηST))^2)) [formula] where Φ = fluorescence quantum yield, η = refractive index of the used solvent, Grad = gradient from the plot of integrated fluorescence intensity vs. absorbance and the subscripts ST and X denote standard and tested sample. […]
(§1) Table 3: Determined slopes and corresponding quantum yields for the two reference compounds Alexa Flour® 647 and Atto 655 and for 6-TramTO-3 with and without dsDNACT.

[3] = test system: dsDNACT; assay: Fluorescence quantum yield with dsDNACT; type: physicochemical, calf; details: with dsDNACT (30 eq.); 10 mM Tris pH 7.6 and 50 mM KCI, 25°C; reference dye Alexa Fluor 647
Procedure: Fluorescence intensity values for the quantum yields were determined on an ISS PC1 spectrofluorometer with an ISS 11650 lamp connected to an ISS Simpson model 109 and an ISS 80011 photomulitplier connected to a MGW Lauda K2R D and an Amherst Scientific Corp. 7600F for cooling. A VWR Refrigerated Circ 1160S was connected for the cooling of the cuvette chamber. It was measured in a 1400 µL fluorescence cuvette of HellmaAnalytics (104F-QS) at 25°C using the following settings: increment: 2.0 nm; integration time: 1.0 s; excitation slit width: 0.25 mm; emission slit width: 0.5 mm; excitation wavelength 590 nm. The emission spectra were recorded from 610 to 750 nm. From all spectra the corresponding background signal was substracted. Absorbance values were measured on a Jasco V-650 UV-Vis Spectrophotometer equipped with a Jasco PAC-743 temperature controlled cell holder and a Julabo F250 cooling system. […] The values for the reference compounds were measured in duplicates, the ones for 6-TramTO-3 with and without dsDNACT in triplicates. The quantum yields of 6-TramTO-3 with (30 eq.) and without dsDNACT were determined in 10 mM Tris pH 7.6 and 50 mM KCI. […]
as §1

[4] = test system: double-stranded calf thymus DNA (dsDNACT); assay: Fluorescence titration with dsDNACT, binding affinity by DynaFit; details: 1 µM dye in 10 mM Tris pH 7.6 and 50 mM KCI, 20°C, emission at 647 nm, 1:1 binding model, read-out: binding affinity (KD, apparent dissociation constant)
Procedure: (§2) Fluorescence measurements and tritations were performed on a Jasco FP-6500 spectrofluorometer equipped with a Thermo Haake WKL 26 water recirculator at 20°C. Unless otherwise noted, a 1400 µL fluorescence cuvette of HellmaAnalytics (104F-QS) was used and the measurements were performed with the following settings: increment: 1.0 nm; integration time: 0.2 s; speed: 500 nm/min; sensitivity: medium; excitation slit width: 3 nm; emission slit width: 3 nm; excitation wavelength 610 nm. The emission spectra were recorded from 625 to 750 nm at 20°C. From all spectra, the corresponding background signal was substracted. […] Table 1: Binding sites and sequences of DNA hairpins, which were used for fluorescence titrations experiments.
(§3) All fluorescence titrations followed the same procedure: to 1 mL of 1 µM solution of corresponding cyanine dye derivative in 10 mM Tris pH 7.6 and 50 mM KCI aliquots of a stock solution of the corresponding annealed DNA (dsDNAhAT and dsDNAhGC = 435 µM; dsDNACT = 0.65 mM) were successively added and the fluorescence spectra were recorded in a range from 625-750 nm after 1 min of each addition. […] The fluorescence emission plotted is the resulting mean of the three independent measurements. […]
(§4) All binding affinities were determined by fitting the obtained experimental data in the DynaFit 4.0 software. […]

[5] = Excitation and emission spectra; type: physicochemical; details: aqueous solution; 10 µM in 10 mM Tris pH 7.6 and 50 mM KCI
Procedure: Fluorescence measurements and tritations were performed on a Jasco FP-6500 spectrofluorometer equipped with a Thermo Haake WKL 26 water recirculator at 20°C. Unless otherwise noted, a 1400 µL fluorescence cuvette of HellmaAnalytics (104F-QS) was used and the measurements were performed with the following settings: increment: 1.0 nm; integration time: 0.2 s; speed: 500 nm/min; sensitivity: medium; excitation slit width: 3 nm; emission slit width: 3 nm; excitation wavelength 610 nm. The emission spectra were recorded from 625 to 750 nm at 20°C. From all spectra, the corresponding background signal was substracted. The used hairpin double-stranded DNAs dsDNAhAT and dsDNAhGC had the sequences depicted in Table. 1. Table 1: Binding sites and sequences of DNA hairpins, which were used for fluorescence titrations experiments.
For each cyanine dye derivative: 6-AzTO-3, 6-TramTO-3 and 6-NH2TO-3, the excitation and emission spectra of a 10 µM solution of the corresponding compound in 1 mL of 10 mM Tris pH 7.6 and 50 mM KCI were measured. The excitation spectra were recorded at an emission of 670 nm in a rage from 500 - 660 nm (slit 5/10 nm), while the emission spectra were measured at an excitation of 590 nm in a range from 600 - 750 nm (slit 5/10 nm). (cf. Fig. 13)

[6] = target: dsDNAhGC (double-stranded DNA hairpin with the consensus sequence GGCCC); assay: Fluorescence titration with hairpin dsDNAhGC, binding affinity by DynaFit; details: 1 µM dye in 10 mM Tris pH 7.6 and 50 mM KCI, 20°C, emission at 650 nm, 1:1 binding model, read-out: binding affinity (KD, apparent dissociation constant)
Procedure: as §2, §3, §4

## CC[n+]1ccc(/C=C/C=C2\Sc3ccccc3N2CCCCCCn2cc(CN)nn2)c2ccccc21.[I-] [6-TramTO-3, 4-((1E,3Z)-3-(3-(6-(4-(aminomethyl)-1H-1,2,3-triazol-1-yl)hexyl)benzo[d]thiazol-2(3H)-ylidene)prop-1-en-1-yl)-1-ethylquinolin-1-ium iodide]
[1]; 45 µM dsDNACT with 1.8 µM dye in 10 mM Tris pH 7.5, dsDNACT alone 68.12°C
  melting point of dsDNACT with addition of dye: 72.66 °C
[1]; dsDNACT stabilization upon dye binding, 45 µM dsDNACT, 1.8 µM dye, 10 mM Tris pH 7.5
  ΔTm: 5 °C
[2]
  quantum yield (ΦF): 0.005 and 0.0052
[3]
  quantum yield (ΦF): 0.27
[4]
  Kd: 19.5 ± 2.6 µM
[5]
  long wavelength maximum of emission: 645 nm
  long wavelength maximum of excitation: 633 nm
[6]
  Kd: 104 ± 54 nM
